In publication PMC7618122 (American journal of physiology. Heart and circulatory …, 2025):

Molecular target: T1, Nav1.5 (Homo sapiens, UniProt Q14524, F1760A)
T1 construct: gene SCN5A

Q: For `Cc1cccc(C)c1OCC(C)N` (stereo not shown) [MEXI, mexiletine], which “whole-cell patch clamp of tsA201 cells after 24-h incubation with 100 μM; effect” value is on record?
A: The value was “Nav1.5-F1760A peak INa densities, on the other hand, were significantly enhanced after 24-h incubation with MEXI”.
